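All cell lines were grown in 96-well plates and treated with compound for 48 hours. GI50 = concentration required for 50% inhibition of growth. Definition used: TGI = concentration required for complete inhibition of growth.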
Experiments:
Assay in all cases: inhibition of tumour cell growth, NCI panel, 48 h
U251 CNS = system: U251 CNS
RXF 393 renal = system: RXF 393 renal
CAKI-1 renal = system: CAKI-1 renal
NCI-H226 lung = system: NCI-H226 lung
UACC-257 melanoma = system: UACC-257 melanoma
NCI-H460 lung = system: NCI-H460 lung
DU-145 prostate = system: DU-145 prostate
SNB-75 CNS = system: SNB-75 CNS
PC-3 prostate = system: PC-3 prostate
HOP-62 NSCLC = system: HOP-62 NSCLC

Row | Compound | TGI (U251 CNS) [µM] | TGI (RXF 393 renal) [µM] | TGI (CAKI-1 renal) [µM] | TGI (NCI-H226 lung) [µM] | TGI (UACC-257 melanoma) [µM] | TGI (NCI-H460 lung) [µM] | TGI (DU-145 prostate) [µM] | TGI (SNB-75 CNS) [µM] | TGI (PC-3 prostate) [µM] | TGI (HOP-62 NSCLC) [µM] | GI50 (U251 CNS) [µM] | GI50 (RXF 393 renal) [µM] | GI50 (CAKI-1 renal) [µM] | GI50 (NCI-H226 lung) [µM] | GI50 (UACC-257 melanoma) [µM] | GI50 (NCI-H460 lung) [µM] | GI50 (DU-145 prostate) [µM] | GI50 (SNB-75 CNS) [µM] | GI50 (PC-3 prostate) [µM] | GI50 (HOP-62 NSCLC) [µM]
1 | C=C1C(=O)OC2C1C(OC(=O)/C(C)=C/C)CC1(C)C(=O)CCC(=C)C21 (configuration not stated) | > 54.4 | 11 | 17.9 | 55.9 | 28.5 | > 52.8 | 24.2 | 32 | 22.9 | 30.5 | – | – | – | – | – | – | – | – | – | –
2 | CC1(C)COC(/C=C/C2=NC(C)(C)CO2)=N1 | 64.3 | 34.5 | 23.4 | 59.4 | > 100 | > 100 | 44.1 | > 100 | 51.7 | 55.2 | – | – | – | – | – | – | – | – | – | –
3 | COc1cccc(-c2nc3c(C(=O)NCCN(C)C)cccc3[nH]2)c1 | > 61.6 | 56.7 | > 96 | 35.7 | 31.3 | 34.6 | – | 68.1 | – | 33.2 | – | – | – | – | – | – | – | – | – | –
4 | Nc1nc(SCc2ccccc2)c2ncn(Cc3ccccc3)c2n1 | > 100 | > 100 | > 86.5 | > 100 | > 100 | > 100 | > 100 | > 100 | > 100 | > 100 | – | – | – | – | – | – | – | – | – | –
5 | Fc1ccc(-c2ccc(-c3nnc(-c4cc(F)c(Cl)cc4Cl)o3)o2)cc1Cl | > 100 | > 100 | 89.9 | 76.1 | > 100 | > 100 | > 100 | > 100 | > 100 | – | 32.8 | 48 | 33.7 | 20.9 | 46.1 | 29.7 | 29.5 | 30.6 | 36.9 | –
6 | S=C(Nc1ccc(Cl)cc1)Nc1ccc(Cl)cc1 (tested in a mixture with another compound) | 3.52 | 5.29 | 7.08 | 7.76 | 6.23 | 4.46 | > 100 | 4.87 | 6.59 | 7.2 | 1.64 | 2.13 | 2.15 | 2.33 | 2.65 | 1.61 | 4.87 | 1.65 | 1.71 | 2.75
7 | O=C1c2ccccc2-c2ccc(N=[N+]([O-])c3ccc4c(c3)C(=O)c3ccccc3-4)cc21 | > 100 | > 100 | > 100 | > 100 | > 100 | > 100 | > 100 | > 100 | > 100 | > 100 | – | – | – | – | – | – | – | – | – | –
8 | O=C1/C(=C\c2ccc(-c3ccc(Cl)cc3Cl)o2)SC2N=C(COc3ccc(Cl)cc3)NN12 (configuration not stated) | 98.2 | 88 | > 100 | > 100 | 74.4 | > 100 | > 100 | > 100 | > 100 | > 100 | – | – | – | – | – | – | – | – | – | –
9 | O=S(O)c1cc(Cl)cc(Cl)c1O | > 100 | > 100 | – | – | > 100 | > 100 | – | > 100 | – | > 100 | – | – | – | – | – | – | – | – | – | –
10 | O=S(=O)(c1ccc(I)cc1)N(c1ccccc1)S(=O)(=O)C(F)(F)C(F)(F)C(F)(F)C(F)(F)F | > 100 | 78.6 | 98.2 | 58 | > 100 | > 100 | > 100 | – | > 100 | 66.6 | – | – | – | – | – | – | – | – | – | –
11 | COc1ccc(SC(C)(SC)c2ccccn2)c(OC)n1 (configuration not stated) | > 100 | > 100 | > 100 | > 100 | > 100 | > 100 | > 100 | – | > 100 | > 100 | – | – | – | – | – | – | – | – | – | –
12 | Oc1cc2cccc[n+]2c2cccc(Cl)c12 | – | 74.6 | – | – | 48.4 | – | – | – | – | – | 42 | 26.1 | – | – | 21.7 | 82.1 | 62.3 | – | – | –
13 | O=C(O)C1CC(c2ccccc2)=NN1c1ccccc1 (configuration not stated) | > 100 | > 100 | > 100 | > 100 | > 100 | > 100 | > 100 | > 100 | > 100 | > 100 | – | – | – | – | – | – | – | – | – | –
14 | N#C/C=C1\C=CC(O)C(O)C1OC1OC(CO)C(O)C(O)C1O (configuration not stated) | > 100 | > 100 | > 100 | – | > 100 | > 100 | > 100 | > 100 | > 100 | > 100 | – | – | – | – | – | – | – | – | – | –
15 | S=C1N(c2ccc(Cl)cc2)C2=C(N=Nc3ccccc3)C(=Nc3ccccc3S2)N1c1ccccn1 | 23.7 | – | 26.7 | – | 30.4 | 25.7 | 27.8 | 49.2 | 27.6 | 33.7 | – | – | – | – | – | – | – | – | – | –
16 | CN(C)Cc1ccc(C(=O)Nc2ccc3ncnc(Nc4ccc(Oc5cccc(F)c5)c(Cl)c4)c3c2)cc1 | – | 2.99 | 3.15 | – | – | 3.31 | 2.91 | 2.84 | – | – | – | 1.5 | 1.68 | – | – | 1.76 | 1.55 | 1.48 | – | –
17 | CC(C)C(N=Cc1ccccc1O)C(=O)O (configuration not stated) | > 100 | – | > 100 | > 100 | > 100 | > 100 | > 100 | – | > 100 | > 100 | – | – | – | – | – | – | – | – | – | –

Source: PubChem BioAssay (NCI)
